# ChEMBL document CHEMBL6121055, “Strategic Mutations in Designer Native Peptides Combat NLRP3 Inflammasome Activation in Neurodegenerative Disorders” (J Med Chem, 2025)
# Active and inactive are the calls of the source. The rule behind the calls is not given here. Residues, ends and D or L forms follow the SMILES beside them.
# Key:
# N9 [1] = experiment: Inhibition of NLRP3 inflammasome activation mediated pyroptosis in LPS/ATP-stimulated mouse N9 cells assessed as reduction in cell death preincubated with compound followed by LPS stimulation by MTT assay; assay type: cell-based; conditions: dose 5-20 µM
# N9 [2] = experiment: Inhibition of NLRP3 inflammasome activation in LPS/ATP-stimulated mouse N9 cells assessed as inhibition of GSDMD cleavage by DAPI staining based immunofluorescence analysis; assay type: cell-based; conditions: dose 10-20 µM
# N9 [3] = experiment: Inhibition of NLRP3 inflammasome activation mediated pyroptosis in LPS/ATP-stimulated mouse N9 cells assessed as reduction in number of PI-positive cells preincubated with compound and LPS for 4 hrs followed by ATP addition and measured after 24 hrs by calcein AM/PI staining based confocal imaging analysis; assay type: cell-based; conditions: dose 5-20 µM, time 28.0 hrs
# N9 [4] = experiment: (§1) Inhibition of NLRP3 inflammasome activation in LPS/tau-stimulated mouse N9 cells assessed as inhibition of ASC speck formation preincubated with LPS for 4 hrs followed by compound addition by 30 mins and measured after 24 hrs of tau stimulation by DAPI staining based immunofluorescence analysis; assay type: cell-based; conditions: dose 10-20 µM, time 24.5 hrs
# N9 [5] = experiment: Effect on TNF-alpha mRNA expression in LPS/ATP-stimulated mouse N9 cells at 1 to 100 uM by qRT-PCR analysis; assay type: functional, cell-based; conditions: dose 1-100 µM
# [6] = target: T1, Apoptosis-associated speck-like protein containing a CARD (Homo sapiens, UniProt Q9ULZ3); experiment: Binding affinity to Alexa647-labeled ASC (unknown origin) assessed as dissociation constant incubated for 5 mins by fluorescence spectra based analysis
# N9 [7] = experiment: Inhibition of NLRP3 inflammasome activation in LPS/ATP-stimulated mouse N9 cells assessed as reduction in caspase-1 mRNA expression by measuring remaining activity at 20 uM by qRT-PCR analysis relative to control; assay type: cell-based
# N9 [8] = experiment: Inhibition of NLRP3 inflammasome activation in LPS/ATP-stimulated mouse N9 cells assessed as increase in intracellular chloride level preincubated with LPS for 4 hrs followed by compound addition for 30 mins and measured after ATP stimulation for 50 mins by MQAE dye based analysis; assay type: cell-based; conditions: time 80.0 min
# N9 [9] = experiment: Inhibition of NLRP3 inflammasome activation mediated in LPS/tau-stimulated mouse N9 cells assessed as decrease in mitochondrial ROS generation by flow cytometric analysis; assay type: cell-based; conditions: dose 5-30 µM
# N9 [10] = experiment: Inhibition of NLRP3 inflammasome activation mediated in LPS/alpha-synuclein-stimulated mouse N9 cells assessed as increase in mitochondrial membrane potential by flow cytometric analysis; assay type: cell-based; conditions: dose 5-30 µM
# [11] = Inhibition of NLRP3 inflammasome activation in LPS/ATP-stimulated mouse N9 cells assessed as inhibition of caspase-1 mRNA expression by qRT-PCR analysis; assay type: cell-based
# N9 [12] = experiment: as §1, with “LPS/ATP-stimulated” for “LPS/tau-stimulated”, “formation at 20 to 30 uM” for “formation”, “45 mins” for “24 hrs”, “ATP” for “tau”; assay type: cell-based; conditions: dose 20-30 µM, time 75.0 min
# [13] = Stability of compound in fetal bovine serum at 100 uM measured after 48 hrs by RP-HPLC analysis; assay type: ADME, cell-free, Bos taurus; conditions: cattle
# N9 [14] = experiment: as §1, with “LPS/alpha-synuclein-stimulated” for “LPS/tau-stimulated”, “alpha-synuclein” for “tau”; assay type: cell-based; conditions: dose 10-20 µM, time 24.5 hrs
# [15] = Cytotoxicity against mouse N9 cells assessed as reduction in cell viability at 100 uM incubated for 24 hrs by MTT assay; assay type: toxicity, cell-based; conditions: n9, 24 h
# N9 [16] = experiment: Inhibition of AIM2 inflammasome activation mediated pyroptosis in LPS/poly(dA:dT)-stimulated mouse N9 cells assessed as reduction in cell death at 50 uM by MTT assay; assay type: cell-based
# N9 [17] = experiment: Inhibition of NLRP3 inflammasome activation mediated mitochondrial damage in LPS/ATP-stimulated mouse N9 cells assessed as normal tubular structure of mitochondria at 10 to 20 uM by […] staining based confocal microscopic analysis; conditions: dose 10-20 µM
# N9 [18] = experiment: Inhibition of NLRP3 inflammasome activation in LPS/ATP-stimulated mouse N9 cells assessed as increase in mitochondrial membrane potential preincubated with LPS for 4 hrs followed by compound addition for 30 mins and measured after ATP stimulation for 1 hrs by Rhodamine 123 staining based flow cytometric analysis; assay type: cell-based; conditions: dose 10-30 µM, time 1.5 hrs
# N9 [19] = experiment: Inhibition of NLRP3 inflammasome activation mediated in LPS/amyloid-beta-stimulated mouse N9 cells assessed as increase in mitochondrial membrane potential by flow cytometric analysis; assay type: cell-based; conditions: dose 5-30 µM
# N9 [20] = experiment: Inhibition of NLRP3 inflammasome activation in LPS/ATP-stimulated mouse N9 cells assessed as increase in intracellular chloride level at 5 to 30 uM preincubated with LPS for 4 hrs followed by compound addition for 30 mins and measured after ATP stimulation for 45 mins by MQAE dye based analysis; assay type: cell-based; conditions: dose 5-30 µM, time 75.0 min
# [21] = target: T1, Apoptosis-associated speck-like protein containing a CARD; experiment: Binding affinity to Alexa647-labeled ASC (unknown origin) assessed as equilibrium dissociation constant incubated for 30 mins by MST analysis
# N9 [22] = experiment: as §1, with “LPS/amyloid-beta-stimulated” for “LPS/tau-stimulated”, “16” for “24”, “amyloid-beta” for “tau”; assay type: cell-based; conditions: dose 10-20 µM, time 16.5 hrs
# N9 [23] = experiment: Inhibition of NLRP3 inflammasome activation mediated pyroptosis in LPS/ATP-stimulated mouse N9 cells assessed as reduction in cell death at 100 uM measured after 24 hrs by MTT assay; assay type: cell-based
# [24] = Stability of compound in human serum at 100 uM measured over 24 hrs by RP-HPLC analysis; assay type: ADME, cell-free
# N9 [25] = experiment: Inhibition of NLRP3 inflammasome activation in LPS/tau-stimulated mouse N9 cells assessed as reduction in IL-1beta secretion at 10 to 20 uM preincubated with LPS for 4 hrs followed by compound addition for 30 mins and measured after tau stimulation for 24 hrs by ELISA; assay type: cell-based; conditions: dose 10-20 µM, time 24.5 hrs
# N9 [26] = experiment: Inhibition of NLRP3 inflammasome activation mediated in LPS/amyloid-beta-stimulated mouse N9 cells assessed as decrease in mitochondrial ROS generation by flow cytometric analysis; assay type: cell-based; conditions: dose 5-30 µM
# N9 [27] = experiment: Inhibition of NLRP3 inflammasome activation in LPS/amyloid-beta-stimulated mouse N9 cells assessed as reduction in IL-1beta secretion at 10 to 20 uM preincubated with LPS for 4 hrs followed by compound addition for 30 mins and measured after amyloid-beta stimulation for 24 hrs by ELISA; assay type: cell-based; conditions: dose 10-20 µM, time 24.5 hrs
# N9 [28] = experiment: Inhibition of NLRP3 inflammasome activation in LPS/ATP-stimulated mouse N9 cells assessed as reduction in IL-1beta mRNA expression by measuring remaining activity at 20 uM by qRT-PCR analysis relative to control; assay type: cell-based
# N9 [29] = experiment: Inhibition of NLRP3 inflammasome activation in LPS/ATP-stimulated mouse N9 cells assessed as increase in intracellular potassium level at 10 to 25 uM preincubated with LPS for 4 hrs followed by compound addition for 30 mins and measured after ATP stimulation for 1 hrs by ICP-OES analysis; assay type: cell-based; conditions: dose 10-25 µM, time 1.5 hrs
# N9 [30] = experiment: Inhibition of NLRP3 inflammasome activation mediated in LPS/tau-stimulated mouse N9 cells assessed as increase in mitochondrial membrane potential by flow cytometric analysis; assay type: cell-based; conditions: dose 5-30 µM
# N9 [31] = experiment: Inhibition of NLRP3 inflammasome activation in LPS/amyloid-beta-stimulated mouse N9 cells assessed as reduction in IL-1beta secretion at 10 to 20 uM preincubated with LPS for 4 hrs followed by compound addition for 30 mins and measured after amyloid-beta stimulation for 16 hrs by ELISA; assay type: cell-based; conditions: dose 10-20 µM, time 16.5 hrs
# T1 sequence (Q9ULZ3 whole entry): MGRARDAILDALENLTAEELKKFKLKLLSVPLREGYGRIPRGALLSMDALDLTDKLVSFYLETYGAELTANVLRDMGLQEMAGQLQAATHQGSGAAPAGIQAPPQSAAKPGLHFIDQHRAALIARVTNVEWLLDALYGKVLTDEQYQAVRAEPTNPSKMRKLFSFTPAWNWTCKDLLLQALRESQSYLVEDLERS
structure (smiles),measurement,setting,value
CC[C@H](C)[C@H](NC(=O)[C@H](C)NC(=O)[C@H](C)NC(=O)[C@H](CC(C)C)NC(=O)[C@@H](NC(=O)[C@H](Cc1c[nH]c2ccccc12)NC(=O)[C@@H](N)C(C)C)[C@@H](C)CC)C(=O)N[C@@H](CC(N)=O)C(=O)N[C@@H](CCCNC(=N)N)C(=O)N[C@@H](CCCNC(=N)N)C(=O)O (H-VWILAAINRR-OH),inhibition,N9 [1],Dose-dependent-effect
same,inhibition,N9 [2],Dose-dependent-effect
same,inhibition,N9 [3],Dose-dependent-effect
same,inhibition,N9 [4],Dose-dependent-effect
same,Activity,N9 [5],inactive
same,Kd,[6],0.058 µM
same,Activity,N9 [7],15%
same,inhibition,N9 [8],Active
same,inhibition,N9 [9],Dose-dependent-effect
same,inhibition,N9 [10],Dose-dependent-effect
same,IC50,[11],16.2 µM
same,inhibition,N9 [12],Active
same,Stability,[13],Stable
same,inhibition,N9 [14],Dose-dependent-effect
same,Activity,[15],Non-toxic
same,inhibition,N9 [16],Active
same,inhibition,N9 [17],Active
same,inhibition,N9 [18],Dose-dependent-effect
same,inhibition,N9 [19],Dose-dependent-effect
same,inhibition,N9 [20],Active
same,Kd,[21],~0.149 µM
same,inhibition,N9 [22],Dose-dependent-effect
same,inhibition,N9 [23],Active
same,Stability,[24],Stable
same,inhibition,N9 [25],Dose-dependent-effect
same,inhibition,N9 [26],Dose-dependent-effect
same,inhibition,N9 [27],Dose-dependent-effect
same,Activity,N9 [28],50%
same,inhibition,N9 [29],Active
same,inhibition,N9 [30],Dose-dependent-effect
same,inhibition,N9 [31],Dose-dependent-effect
